Laboratory results as given in ChEMBL document CHEMBL1201862, “PubChem BioAssay data set” (2004).
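Compound exposure: 48 hours, 5 concentrations, 96-well plates. GI50 = concentration required for 50% inhibition of growth.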 Active and inactive are the calls of the source. No stated cut-off is given here; in the data, active = GI50 up to about 1.1 µM and inactive = higher.

Experiments:
Experiment in all cases: NCI tumour cell line growth inhibition, 48 h
Malme-3M = tested on: Malme-3M
NCI-H226 = tested on: NCI-H226
UACC-62 = tested on: UACC-62
MOLT-4 = tested on: MOLT-4
A549 = tested on: A549
U-251 = tested on: U-251
RXF 393 = tested on: RXF 393
SN12C = tested on: SN12C
HOP-92 = tested on: HOP-92
RPMI-8226 = tested on: RPMI-8226
NCI-H23 = tested on: NCI-H23
LOX IMVI = tested on: LOX IMVI
COLO 205 = tested on: COLO 205
NCI-H522 = tested on: NCI-H522
HCC 2998 = tested on: HCC 2998

| Compound | GI50 (Malme-3M) | GI50 (NCI-H226) | GI50 (UACC-62) | GI50 (MOLT-4) | GI50 (A549) | GI50 (U-251) | GI50 (RXF 393) | GI50 (SN12C) | GI50 (HOP-92) | GI50 (RPMI-8226) | GI50 (NCI-H23) | GI50 (LOX IMVI) | GI50 (COLO 205) | GI50 (NCI-H522) | GI50 (HCC 2998) |
| --- | --- | --- | --- | --- | --- | --- | --- | --- | --- | --- | --- | --- | --- | --- | --- |
| CC1(CO)OC1COCc1ccccc1 (centres undefined) | > 100 µM (inactive) | > 100 µM (inactive) | > 100 µM (inactive) | > 100 µM (inactive) | > 100 µM (inactive) | > 100 µM (inactive) | > 100 µM (inactive) | > 100 µM (inactive) | > 100 µM (inactive) | > 100 µM (inactive) | > 100 µM (inactive) | > 100 µM (inactive) | > 100 µM (inactive) |  |  |
| CCCCCCCCCCCCCCCC(=O)OCC1OC(n2cc(F)c(=O)[nH]c2=O)C(NC(=O)N(CCCl)N=O)C(O)C1O (centres undefined) | 4.47 µM (inactive) | 10.4 µM (inactive) | 0.0103 µM (active) | 1.21 µM (inactive) | 0.767 µM (active) | 0.0585 µM (active) | 2.38 µM (inactive) | 2.07 µM (inactive) | 3.65 µM (inactive) | 3.06 µM (inactive) | 0.731 µM (active) | 0.157 µM (active) | 4.41 µM (inactive) | 5.15 µM (inactive) | 2.71 µM (inactive) |
| COc1cc(-c2cccs2)sc1-c1cccs1 | 39 µM (inactive) | 43.5 µM (inactive) | 40.9 µM (inactive) | 32.6 µM (inactive) | 33.3 µM (inactive) | 43.6 µM (inactive) | 21.8 µM (inactive) | 81.8 µM (inactive) | 24.5 µM (inactive) | 52.4 µM (inactive) | 15.7 µM (inactive) | 46.2 µM (inactive) | 13.2 µM (inactive) | 31 µM (inactive) | 26.7 µM (inactive) |
| S=c1sc2c(Cl)nc(Cl)nc2n1-c1ccccc1 | 8.11 µM (inactive) | 61.2 µM (inactive) | 14.6 µM (inactive) | 32.4 µM (inactive) | > 100 µM (inactive) | 31 µM (inactive) | 21.6 µM (inactive) | 46.2 µM (inactive) | > 100 µM (inactive) | > 100 µM (inactive) | 15.7 µM (inactive) | 34.8 µM (inactive) | > 100 µM (inactive) | 11.5 µM (inactive) | 52.4 µM (inactive) |
| C=CCCCCCCCCC(=O)NS(=O)(=O)c1ccccc1 | > 100 µM (inactive) | > 100 µM (inactive) | 53.2 µM (inactive) | 48.6 µM (inactive) | 57.7 µM (inactive) | 77.4 µM (inactive) | > 100 µM (inactive) | > 100 µM (inactive) | 56.9 µM (inactive) | 35.8 µM (inactive) | > 100 µM (inactive) | > 100 µM (inactive) | > 100 µM (inactive) | 55.3 µM (inactive) | > 100 µM (inactive) |
| CC(=O)NNc1nc(C)c(C(=O)NNC(=O)C(=O)Nc2ccc(C)cc2[N+](=O)[O-])s1 | > 100 µM (inactive) | > 100 µM (inactive) | > 100 µM (inactive) | 98.4 µM (inactive) | > 100 µM (inactive) | > 100 µM (inactive) | > 100 µM (inactive) | > 100 µM (inactive) | > 100 µM (inactive) | > 100 µM (inactive) | > 100 µM (inactive) | 56.4 µM (inactive) | > 100 µM (inactive) | 20.7 µM (inactive) | > 100 µM (inactive) |
| CCCCC(C(=O)CCC(=O)Nc1ccc(Cl)c(Cl)c1)C(=O)C(C)C (centres undefined) | > 100 µM (inactive) | > 100 µM (inactive) | 19.6 µM (inactive) | > 100 µM (inactive) | > 100 µM (inactive) | > 100 µM (inactive) | > 100 µM (inactive) | > 100 µM (inactive) | > 100 µM (inactive) | > 100 µM (inactive) | > 100 µM (inactive) | 63.2 µM (inactive) | > 100 µM (inactive) | > 100 µM (inactive) | > 100 µM (inactive) |
| COc1ccc(C2Oc3c(cc(O)c(OC)c3C)[C@@H]2C)cc1OC (some centres undefined) | > 100 µM (inactive) | > 100 µM (inactive) | 90.2 µM (inactive) | 76.2 µM (inactive) | > 100 µM (inactive) | > 100 µM (inactive) | 27.7 µM (inactive) |  | 43 µM (inactive) | 4.44 µM (inactive) | > 100 µM (inactive) | 82.6 µM (inactive) | > 100 µM (inactive) | 34.4 µM (inactive) | > 100 µM (inactive) |
| O=C(Nc1nnn[nH]1)c1nc(O)cc(-c2ccccc2)n1 | > 100 µM (inactive) | > 100 µM (inactive) | > 100 µM (inactive) | > 100 µM (inactive) | > 100 µM (inactive) | > 100 µM (inactive) |  | > 100 µM (inactive) | > 100 µM (inactive) | > 100 µM (inactive) | > 100 µM (inactive) |  | > 100 µM (inactive) | > 100 µM (inactive) | > 100 µM (inactive) |
| COc1ccc(/C=C2\C(=O)N(C(=O)c3ccc(NC(C)=O)cc3)N=C2C)cc1OC | > 100 µM (inactive) | > 100 µM (inactive) |  | > 100 µM (inactive) | > 100 µM (inactive) |  |  | > 100 µM (inactive) |  | > 100 µM (inactive) | > 100 µM (inactive) | > 100 µM (inactive) | > 100 µM (inactive) | > 100 µM (inactive) | > 100 µM (inactive) |
| CCOC(=O)C1(Cc2ccccc2)CCCCCN1 (centres undefined) | 50.1 µM (inactive) |  | > 100 µM (inactive) |  | > 100 µM (inactive) | > 100 µM (inactive) | > 100 µM (inactive) | > 100 µM (inactive) | > 100 µM (inactive) |  | > 100 µM (inactive) | > 100 µM (inactive) | > 100 µM (inactive) |  | > 100 µM (inactive) |
| O=c1[nH]cc(OCC(F)(F)F)c(=O)[nH]1 | > 100 µM (inactive) |  | > 100 µM (inactive) | > 100 µM (inactive) | > 100 µM (inactive) | > 100 µM (inactive) | > 100 µM (inactive) | > 100 µM (inactive) | > 100 µM (inactive) | > 100 µM (inactive) | > 100 µM (inactive) | > 100 µM (inactive) | > 100 µM (inactive) | > 100 µM (inactive) | > 100 µM (inactive) |
| CC(C)C12C=CC(C)(CC1)n1c(=O)c3cc4ccccc4cc3c(=O)n12 (centres undefined) | 42.9 µM (inactive) | 40.6 µM (inactive) |  | 30.8 µM (inactive) | 45.4 µM (inactive) | 76 µM (inactive) | > 100 µM (inactive) | 34.7 µM (inactive) | 38.5 µM (inactive) | 36.3 µM (inactive) | 52 µM (inactive) | 41.9 µM (inactive) | 41.9 µM (inactive) | 29.3 µM (inactive) | 33.7 µM (inactive) |
| Oc1cc(-c2ccc[nH]2)nc2cc3c(cc12)OCO3 | 17.1 µM (inactive) |  | 27 µM (inactive) | 39.7 µM (inactive) | 53.8 µM (inactive) | 65.9 µM (inactive) |  | 49 µM (inactive) |  | 43 µM (inactive) |  | 64.1 µM (inactive) | 18.5 µM (inactive) |  | 28.8 µM (inactive) |
| CC(C)COC(=O)N1N=NC2C3OC(CC3=O)C21 (centres undefined) | > 100 µM (inactive) | > 100 µM (inactive) | 43.6 µM (inactive) | > 100 µM (inactive) |  | > 100 µM (inactive) | > 100 µM (inactive) | > 100 µM (inactive) | > 100 µM (inactive) | > 100 µM (inactive) | > 100 µM (inactive) | > 100 µM (inactive) | > 100 µM (inactive) | > 100 µM (inactive) | > 100 µM (inactive) |
| Nc1nc(N)c2ncn(CCCC(c3ccccc3)P(=O)(O)O)c2n1 (centres undefined) | > 100 µM (inactive) |  | > 100 µM (inactive) |  | > 100 µM (inactive) | > 100 µM (inactive) |  | > 100 µM (inactive) | > 100 µM (inactive) | > 100 µM (inactive) | 19.2 µM (inactive) | > 100 µM (inactive) | > 100 µM (inactive) | > 100 µM (inactive) | > 100 µM (inactive) |
| CCOC(=O)C1S/C(=N/c2ccc(Cl)cc2C)N=C1C (centres undefined) | 20.2 µM (inactive) | 24 µM (inactive) | 14.1 µM (inactive) | 9.77 µM (inactive) | 21.4 µM (inactive) | 15.8 µM (inactive) | 15.3 µM (inactive) | 18.5 µM (inactive) | 15.5 µM (inactive) |  | 16.5 µM (inactive) | 15 µM (inactive) | 17.1 µM (inactive) | 13.3 µM (inactive) | 20.7 µM (inactive) |
| CCOC(=O)C1=C(C)N(NC(N)=O)C2(N)N(NC(N)=O)C(C)=C(C(=O)OCC)C12C(=O)OCC (centres undefined) | > 100 µM (inactive) | > 100 µM (inactive) | > 100 µM (inactive) | > 100 µM (inactive) | > 100 µM (inactive) | > 100 µM (inactive) | > 100 µM (inactive) | > 100 µM (inactive) |  | > 100 µM (inactive) |  | > 100 µM (inactive) |  | > 100 µM (inactive) | > 100 µM (inactive) |
| Cc1cc(N(CCC#N)S(=O)(=O)c2ccccc2)ccc1/C=C1N=C(/C=C/c2ccccc2)OC\1=O | > 100 µM (inactive) | > 100 µM (inactive) | > 100 µM (inactive) | 98.2 µM (inactive) | > 100 µM (inactive) | > 100 µM (inactive) | > 100 µM (inactive) | > 100 µM (inactive) |  | > 100 µM (inactive) | > 100 µM (inactive) | > 100 µM (inactive) | > 100 µM (inactive) | 67.9 µM (inactive) | > 100 µM (inactive) |
| O=[N+]([O-])c1nccn1COCCBr | > 100 µM (inactive) | > 100 µM (inactive) | > 100 µM (inactive) | > 100 µM (inactive) | > 100 µM (inactive) | > 100 µM (inactive) |  | > 100 µM (inactive) | > 100 µM (inactive) | > 100 µM (inactive) | > 100 µM (inactive) | > 100 µM (inactive) | > 10 µM (inactive) | > 100 µM (inactive) |  |
